Assay results taken from patent US9986723B2, “Screen and use of therapeutics for pancreatic ductal adenocarcinoma” (The Board of Regents of the University of Texas System, priority 2014, dated 2018).

Assays:
cell migration = test: Scratch migration assay; type: cell-based; details: warfarin 2 μM, 16 hrs
Experimental: (FIG. 24A) HEK293 cells engineered to stably express recombinant Gas6 were grown in the presence of Vitamin K or Vitamin K+warfarin. Gas6 levels and γ-carboxylation were assayed by immunoblotting conditioned media. Conditioned media from untransfected HEK293 cells was used as a negative control. (FIG. 24B) Panc1 cells were grown overnight in media with 1% serum with no additions (NT), warfarin (2 μM) or BGB324 (2 μM). Lysates were probed for total Axl (tAxl) and phosphorylated Axl (pAxl). (FIG. 24C) Panc1 cells were grown in the presence of control media, Vitamin K, warfarin or warfarin+Vitamin K. The level of phosphorylated Axl (pAXL, red) was determined by immunofluorescence. (FIG. 24D) Panc1 cells were grown overnight in media with 1% serum with no additions (control), warfarin (1 μM), Gas6 (1.3 nM) or Gas6+warfarin. Lysates were probed for phosphorylated Akt (pAkt) and actin. (FIG. 24E) Lysates from Panc1 tumors harvested from mice treated with control or warfarin were probed for expression of tAxl, pAxl, actin, pAKT, tAKT, and cleaved Parp. (FIG. 24F) The effect of warfarin on cell migration was assessed by a ‘scratch’ assay. Monolayers of the indicted cells were wounded with a pipet tip. The cells were incubated in media containing 2% serum+/−warfarin (2 μM) or media containing 2% serum+Gas6 (1.3 nM)+/−warfarin.

Panc1 = test: MTS cell growth assay, gemcitabine +/- warfarin; type: cell-based, human; details: warfarin 2 μM
Experimental: (§1) Cytotoxicity and augmentation of chemotherapy response was measured by MTS assays conducted in 96-well plates; cells were plated on day 0 and drug was added on day 1 in 4-fold dilutions. Maximum concentration of 2,000 nmol/L for gemcitabine was used with or without the addition of a constant concentration of 2 μM warfarin or 1.1 μM 10C9. Relative cell number was determined by adding MTS (Promega; final concentration […]), incubating for 1 to 3 hours at 37° C., and reading absorbance. Drug sensitivity curves and IC50s were calculated using in-house software.

ASPC = test: MTS cell growth assay, gemcitabine +/- warfarin; type: cell-based, human; details: warfarin 2 μM
Experimental: as §1

[1] = test system: AsPC-1, Mia PaCa-2, and Capan-1 cells; test: Soft agar anchorage-independent growth assay; type: cell-based, human; details: warfarin 2 μM, 14 days; Axl-expressing cells
Experimental: (§2) FIGS. 25A-I. Axl inhibition reduces colony formation and enhances chemotherapy. (FIGS. 25A-C) parental Mia PaCa-2 cells or Mia PaCa-2 cells stably transfected with shRNA targeting Axl (Mia shAxl) were grown as spheroids in matrigel for 7 days in the presence or absence of warfarin (200 ng/ml), n=4/condition. Mia PaCa-2 cell colonies form large stellate colonies characteristic of invasive tumor growth. Colonies and cognate cell projections were imaged (FIG. 25A) with a Nikon Phase contrast microscope using 40× and 200× magnification. Mean total colony number (FIG. 25B) and total colony area+/−s.d. (FIG. 25C) reflective of invasive growth were calculated using Image J image analysis. Scale bar, 100 μm. ****, p<0.001 vs Mia PaCa-2 NT; ##, p<0.01; ###, p<0.005. by ANOVA with Tukey's MCT. […] (FIG. 25E) liver metastases were quantified after intrasplenic injection of C5LM2 cells. […] Mice were sacrificed when control treated animals were moribund and primary and metastatic burden was determined. […]
Anchorage-independent growth assays were performed by coating 12 well plates with 0.5-0.75% agar. […] Fresh media and drug were added twice weekly and colonies were measured by light microscopy at 2 weeks; assays were performed in quadruplicate.

C5LM2 cells = test: Liver metastases after intrasplenic tumor cell injection; type: in vivo, mouse; details: warfarin 1 mg/L, pre or post (48 hrs) tumor cell injection
Experimental: as §2, with “analysis.” for “analysis. Scale bar, 100 μm. ****, p<0.001 vs Mia PaCa-2 NT; ##, p<0.01; ###, p<0.005. by ANOVA with Tukey's MCT.”
Animal studies. […] Mice with established tumors, as determined by sonography were randomized to receive normal drinking water or water containing 1 mg/L (˜3.0 μM) warfarin for experiments in immunocompromised mice and 0.5 mg/L (˜1.5 μM) in experiments in immunocompetent animals with or without gemcitabine 25 mg/kg twice weekly depending on experimental design. […] Metastatic incidence was determined by visual inspection of the liver and abdominal cavity and confirmed by H&E of liver sections. […]

Fold Reduction of gemcitabine IC50 in presence of warfarin (Panc1): 211 fold
Fold Reduction of gemcitabine IC50 in presence of warfarin (ASPC): 8.4 fold
Structure (SMILES): CC(=O)CC(c1ccccc1)c1c(O)c2ccccc2oc1=O (racemic) [Warfarin]
basal and Gas6-induced cell migration (% wound closure) (cell migration): reduced
anchorage independent growth [1]: inhibited
liver colonization after intrasplenic injection (C5LM2 cells): inhibited liver colonization
